Source: patent US5428021A, “Human leukocyte elastase (HLE) inhibitors, and related pharmaceutical compositions and methods of use” (SRI International, priority 1994, dated 1995)

Assays:
Format in all cases: biochemical
[1] = molecular target: T1, Elastase (human neutrophil (HLE)) (Homo sapiens, UniProt P08246); experiment: Inhibition of human leukocyte (neutrophil) elastase, progress curve method (methoxy-Suc-Ala-Ala-Pro-Val-pNA substrate); conditions: for Ki / koff / kon: 25 mM HEPES, 1M NaCl, 0.1% BRIJ 35, pH 6.5, 25° C.; for kinact/KI: pH 6.5, read-out: kobs /[I] Enzyme; for kobs /[I] HLE / kobs /[I] Enzyme: relative selectivity, HLE over HLE
T1 construct: purchased Calbiochem
T1 sequence (P08246 30-267): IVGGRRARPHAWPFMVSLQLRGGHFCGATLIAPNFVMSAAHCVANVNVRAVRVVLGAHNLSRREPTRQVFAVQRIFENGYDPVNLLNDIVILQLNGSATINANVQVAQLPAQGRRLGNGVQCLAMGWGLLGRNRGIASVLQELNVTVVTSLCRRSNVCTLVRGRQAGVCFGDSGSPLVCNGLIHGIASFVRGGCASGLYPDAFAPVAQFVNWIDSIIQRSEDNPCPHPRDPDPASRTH
Protocol: (§1) Enzymes and their substrates, listed below, were obtained from Calbiochem.
(§2) Enzyme and substrate concentrations were chosen to obtain pseudo first order conditions for the entire timecourse, with uninhibited enzyme maintaining a constant rate of product formation for longer than the fifteen minute sampling time.
(§3) Additional compounds within the scope of the invention were evaluated using the progress curve method of Stein et al. to determine the kinetic constants kon, koff, as well as the pKi and relative selectivity for HLE over other serine proteases.

[2] = molecular target: T2, Cathepsin-G (human neutrophil) (Homo sapiens, UniProt P08311); experiment: Inhibition of cathepsin G, progress curve method (Suc-Ala-Ala-Pro-Phe-pNA substrate); conditions: for kinact/KI: pH 6.5, read-out: kobs /[I] Enzyme; for kobs /[I] HLE / kobs /[I] Enzyme: relative selectivity, HLE over Cathepsin G
T2 construct: purchased Calbiochem
T2 sequence (P08311 21-255): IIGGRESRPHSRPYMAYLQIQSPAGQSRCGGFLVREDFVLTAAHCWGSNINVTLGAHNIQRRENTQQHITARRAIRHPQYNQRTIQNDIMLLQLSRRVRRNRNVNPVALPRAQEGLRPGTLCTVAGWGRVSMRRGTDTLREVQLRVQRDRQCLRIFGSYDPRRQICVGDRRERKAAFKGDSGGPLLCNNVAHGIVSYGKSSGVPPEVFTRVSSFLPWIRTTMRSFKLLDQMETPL
Protocol: as §1
Cathepsin-G (human neutrophil
Suc--Ala--Ala--Pro--Phe--
as §2, §3

[3] = molecular target: T3, α Chymotrypsin (bovine pancreatic) (Bos taurus, UniProt P00766); experiment: Inhibition of chymotrypsin, progress curve method (Suc-Gly-Gly-Phe-pNA substrate); conditions: for kinact/KI: pH 7.5, read-out: kobs /[I] Enzyme; for kobs /[I] HLE / kobs /[I] Enzyme: relative selectivity, HLE over Chymotrypsin
T3 construct: purchased Calbiochem
Protocol: as §1
Suc--Gly--Gly--Phe--pNA
as §2, §3

[4] = molecular target: T4, Elastase (porcine pancreatic) (PPE) (Sus scrofa, UniProt P00772); experiment: Inhibition of porcine pancreatic elastase (PPE), progress curve method (Suc-Ala-Ala-Ala-pNA substrate); conditions: for kinact/KI: pH 7.5, read-out: kobs /[I] Enzyme; for kobs /[I] HLE / kobs /[I] Enzyme: relative selectivity, HLE over PPE
T4 construct: purchased Calbiochem
Protocol: as §1, §2, §3

[5] = molecular target: T5, Trypsin (bovine pancreatic) (Bos taurus, UniProt P00760); experiment: Inhibition of trypsin, progress curve method (Bz-Arg-pNA substrate); conditions: for kinact/KI: pH 7.5, read-out: kobs /[I] Enzyme; for kobs /[I] HLE / kobs /[I] Enzyme: relative selectivity, HLE over Trypsin
T5 construct: purchased Calbiochem
T5 sequence (P00760 24-246): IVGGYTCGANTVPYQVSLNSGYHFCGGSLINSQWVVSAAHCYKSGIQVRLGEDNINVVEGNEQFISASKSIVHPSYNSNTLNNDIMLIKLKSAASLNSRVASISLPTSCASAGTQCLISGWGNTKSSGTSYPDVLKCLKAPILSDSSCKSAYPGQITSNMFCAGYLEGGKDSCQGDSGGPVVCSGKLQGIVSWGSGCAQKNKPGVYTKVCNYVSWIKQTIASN
Protocol: as §1, §2, §3

T4 sequence (P00772 27-266): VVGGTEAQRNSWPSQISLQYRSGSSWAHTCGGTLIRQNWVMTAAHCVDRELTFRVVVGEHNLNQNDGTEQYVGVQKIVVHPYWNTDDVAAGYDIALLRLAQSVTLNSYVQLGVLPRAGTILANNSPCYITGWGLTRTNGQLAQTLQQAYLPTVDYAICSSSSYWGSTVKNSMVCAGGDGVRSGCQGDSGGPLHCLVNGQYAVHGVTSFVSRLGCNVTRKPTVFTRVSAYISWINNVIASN

Compound: CCOc1nc2ccc(N)c(C)c2c(=O)o1
- Ki ([1]; HLE): 0.0145 nM
- koff ([1]; pH 6.5, HLE): 2.3e-05 s⁻¹
- kon ([1]; pH 6.5, HLE): 750000 M⁻¹ s⁻¹

Compound: CCOc1nc2ccc(C(C)NC(=O)[C@@H](NC(=O)OC(C)(C)C)C(C)C)c(C)c2c(=O)o1 (single isomer, unassigned) [7 Isomer A]
- Ki ([1]; HLE): 0.0589 nM
- kon ([1]; HLE): 304,000 M^-1 sec^-1
- koff ([1]; pH 6.5, HLE): 1.8e-05 s⁻¹

Compound: CCOc1nc2ccc(C(C)NC(=O)[C@@H](NC(=O)OC(C)(C)C)C(C)C)c(C)c2c(=O)o1 (single isomer, unassigned) [7 Isomer B]
- Ki ([1]; HLE): 0.0145 nM
- koff ([1]; HLE): 0.000016 s⁻¹
- kon ([1]; HLE): 1,100,000 M^-1 sec^-1
- kinact/KI [1]: 1.1e+06 M⁻¹ s⁻¹
- kobs /[I] HLE / kobs /[I] Enzyme [1]: 1
- kinact/KI [2]: 967 M⁻¹ s⁻¹
- kobs /[I] HLE / kobs /[I] Enzyme [2]: 1140
- kinact/KI [3]: 2570 M⁻¹ s⁻¹
- kobs /[I] HLE / kobs /[I] Enzyme [3]: 430
- kinact/KI [4]: 967 M⁻¹ s⁻¹
- kobs /[I] HLE / kobs /[I] Enzyme [4]: 1140
- kinact/KI [5]: 1550 M⁻¹ s⁻¹
- kobs /[I] HLE / kobs /[I] Enzyme [5]: 710

Compound: CCOc1nc2ccc(NC(=O)CCNC(=O)OC(C)(C)C)c(C)c2c(=O)o1 [Example 2, 6-(N-tert-butyloxycarbonyl-β-alanyl)amino-5-methyl-2-ethoxy-4H-3,1-benzoxazin-4-one]
- Ki ([1]; HLE): 1.1 nM
- koff ([1]; pH 6.5, HLE): 0.000404 s⁻¹
- kon ([1]; pH 6.5, HLE): 365000 M⁻¹ s⁻¹
- kinact/KI [1]: 365000 M⁻¹ s⁻¹
- kobs /[I] HLE / kobs /[I] Enzyme [1]: 1
- kinact/KI [2]: 460 M⁻¹ s⁻¹
- kobs /[I] HLE / kobs /[I] Enzyme [2]: 790
- kinact/KI [3]: 3500 M⁻¹ s⁻¹
- kobs /[I] HLE / kobs /[I] Enzyme [3]: 100
- kinact/KI [4]: 2860 M⁻¹ s⁻¹
- kobs /[I] HLE / kobs /[I] Enzyme [4]: 130
- kinact/KI [5]: 200 M⁻¹ s⁻¹
- kobs /[I] HLE / kobs /[I] Enzyme [5]: 1830

Compound: CCOc1nc2ccc(NC(=O)CCN(C)C(=O)OC(C)(C)C)c(C)c2c(=O)o1 [Example 3, 6-(N-tert-butyloxycarbonyl-N-methyl-β-alanyl)-amino-5-methyl-2-ethoxy-3,1-benzoxazin-4-one]
- Ki ([1]; HLE): 1.32 nM
- koff ([1]; pH 6.5, HLE): 0.00042 s⁻¹
- kon ([1]; pH 6.5, HLE): 320000 M⁻¹ s⁻¹

Compound: CCOc1nc2ccc(N)c(CC)c2c(=O)o1 [Example 4]
- Ki ([1]; HLE): 0.1 nM
- koff ([1]; pH 6.5, HLE): 4.7e-05 s⁻¹
- kon ([1]; pH 6.5, HLE): 470000 M⁻¹ s⁻¹

Compound: CCOc1nc2ccc(NC(=O)CCN(C)C(=O)OC(C)(C)C)c(CC)c2c(=O)o1 [Example 5, 6-(N-tert-butyloxycarbonyl-N-methyl-β-alanyl)-amino-5-ethyl-2-ethoxy-3,1-benzoxazin-4-one]
- Ki ([1]; HLE): 0.107 nM
- koff ([1]; pH 6.5, HLE): 3e-05 s⁻¹
- kon ([1]; pH 6.5, HLE): 281000 M⁻¹ s⁻¹

Compound: CCOc1nc2ccc(NC(=O)CCN(C)S(=O)(=O)c3ccc(C)cc3)c(CC)c2c(=O)o1 [Example 6, 6-(N-4-methylbenzenesulfonyl-N-methyl-β-alanyl)-amino-5-ethyl-2-ethoxy-4H-3,1-benzoxazin-4-one]
- Ki ([1]; HLE): 0.0933 nM
- koff ([1]; pH 6.5, HLE): 6.9e-05 s⁻¹
- kon ([1]; pH 6.5, HLE): 745000 M⁻¹ s⁻¹
- kinact/KI [1]: 745000 M⁻¹ s⁻¹
- kobs /[I] HLE / kobs /[I] Enzyme [1]: 1
- kinact/KI [2]: 340 M⁻¹ s⁻¹
- kobs /[I] HLE / kobs /[I] Enzyme [2]: 2190
- kinact/KI [3]: 11900 M⁻¹ s⁻¹
- kobs /[I] HLE / kobs /[I] Enzyme [3]: 60
- kinact/KI [4]: 3450 M⁻¹ s⁻¹
- kobs /[I] HLE / kobs /[I] Enzyme [4]: 220
- kinact/KI [5]: 80 M⁻¹ s⁻¹
- kobs /[I] HLE / kobs /[I] Enzyme [5]: 9312

Compound: CCOc1nc2ccc(C(C)NC(=O)[C@H](C)NC(=O)OC(C)(C)C)c(C)c2c(=O)o1 (stereo partly drawn) [Example 8, 6-[1-(N-tert-butyloxycarbonyl-L-alanyl)-aminoethyl]-2-ethyloxy-5-methyl-4H-3,1-benzoxazin-4-one]
- Ki ([1]; HLE): 0.0331 nM
- koff ([1]; pH 6.5, HLE): 1.7e-05 s⁻¹
- kon ([1]; pH 6.5, HLE): 520000 M⁻¹ s⁻¹

Compound: CCOc1nc2cccc(C)c2c(=O)o1 [positive control, reference compound]
- Ki ([1]; HLE): 0.513 nM
- koff ([1]; pH 6.5, HLE): 7.2e-05 s⁻¹
- kon ([1]; pH 6.5, HLE): 140000 M⁻¹ s⁻¹
